Molecules are shown by their SMILES.

Data set [1] has as its target T1, Amine oxidase [flavin-containing] A (Homo sapiens, UniProt P21397).
T1 sequence (P21397 whole entry): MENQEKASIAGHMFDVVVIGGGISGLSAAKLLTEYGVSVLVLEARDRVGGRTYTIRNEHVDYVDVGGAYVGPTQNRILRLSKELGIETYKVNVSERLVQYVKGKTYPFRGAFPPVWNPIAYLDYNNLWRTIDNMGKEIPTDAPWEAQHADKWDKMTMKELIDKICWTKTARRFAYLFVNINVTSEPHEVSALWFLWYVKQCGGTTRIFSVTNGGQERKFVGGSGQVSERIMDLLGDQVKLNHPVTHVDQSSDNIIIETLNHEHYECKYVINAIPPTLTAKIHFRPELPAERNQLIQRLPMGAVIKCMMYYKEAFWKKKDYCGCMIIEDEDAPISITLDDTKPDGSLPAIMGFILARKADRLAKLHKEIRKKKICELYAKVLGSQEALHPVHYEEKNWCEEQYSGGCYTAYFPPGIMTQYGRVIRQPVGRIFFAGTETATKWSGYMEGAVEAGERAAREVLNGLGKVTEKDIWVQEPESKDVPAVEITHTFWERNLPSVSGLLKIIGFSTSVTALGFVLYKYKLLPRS
As to the kind of experiment: Inhibition of human MAOA.

Data set [2] concerns the target T2, Amine oxidase [flavin-containing] B (Homo sapiens, UniProt P27338).
T2 sequence (P27338 whole entry): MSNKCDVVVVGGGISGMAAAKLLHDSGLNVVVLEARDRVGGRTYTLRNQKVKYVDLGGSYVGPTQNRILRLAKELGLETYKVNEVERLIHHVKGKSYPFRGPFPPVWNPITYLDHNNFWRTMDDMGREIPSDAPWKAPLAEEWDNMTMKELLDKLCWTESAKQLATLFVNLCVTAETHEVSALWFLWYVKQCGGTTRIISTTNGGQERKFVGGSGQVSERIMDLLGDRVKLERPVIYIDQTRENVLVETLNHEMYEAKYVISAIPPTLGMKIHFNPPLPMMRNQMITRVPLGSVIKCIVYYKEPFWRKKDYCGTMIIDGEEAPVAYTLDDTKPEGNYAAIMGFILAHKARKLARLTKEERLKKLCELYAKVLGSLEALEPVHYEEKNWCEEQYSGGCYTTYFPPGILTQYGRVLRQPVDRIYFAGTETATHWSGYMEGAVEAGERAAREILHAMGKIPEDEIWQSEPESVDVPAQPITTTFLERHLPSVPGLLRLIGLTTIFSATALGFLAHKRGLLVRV
Kind of data set: Inhibition of human recombinant MAOB expressed in Pichia pastoris assessed as effect on flavin absorbance shift by spectroscopy.

The target in data set [3] is T1, Amine oxidase [flavin-containing] A. Kind of data set: Inhibition of oxidized human recombinant MAOA expressed in Pichia pastoris under anaerobic assay condition.
For data set [4] the target is unchanged. Kind of data set: Inhibition of human recombinant MAOA expressed in Pichia pastoris by kinetic assay.
Data set [5] deals with T2, Amine oxidase [flavin-containing] B. As to the kind of experiment: Inhibition of human recombinant MAOB expressed in Pichia pastoris assessed as fluoride ion release by ion-selective electrode experiment.
Data set [6] has the same target. As to the kind of experiment: Inhibition of oxidized human recombinant MAOB expressed in Pichia pastoris under anaerobic assay condition.
For data set [7] the target is unchanged. As to the kind of experiment: Inhibition of human recombinant MAOB expressed in Pichia pastoris by kinetic assay.
Data set [8] has the same target. Kind of data set: Inhibition of reduced human recombinant MAOB expressed in Pichia pastoris assessed as increase in absorbance of reduced enzyme. Further details: scale not given: the % may be the effect or the level left; call rule not given here.
Data set [9] addresses T3, Amine oxidase [flavin-containing] B (Rattus norvegicus, UniProt P19643).
T3 sequence (P19643 whole entry): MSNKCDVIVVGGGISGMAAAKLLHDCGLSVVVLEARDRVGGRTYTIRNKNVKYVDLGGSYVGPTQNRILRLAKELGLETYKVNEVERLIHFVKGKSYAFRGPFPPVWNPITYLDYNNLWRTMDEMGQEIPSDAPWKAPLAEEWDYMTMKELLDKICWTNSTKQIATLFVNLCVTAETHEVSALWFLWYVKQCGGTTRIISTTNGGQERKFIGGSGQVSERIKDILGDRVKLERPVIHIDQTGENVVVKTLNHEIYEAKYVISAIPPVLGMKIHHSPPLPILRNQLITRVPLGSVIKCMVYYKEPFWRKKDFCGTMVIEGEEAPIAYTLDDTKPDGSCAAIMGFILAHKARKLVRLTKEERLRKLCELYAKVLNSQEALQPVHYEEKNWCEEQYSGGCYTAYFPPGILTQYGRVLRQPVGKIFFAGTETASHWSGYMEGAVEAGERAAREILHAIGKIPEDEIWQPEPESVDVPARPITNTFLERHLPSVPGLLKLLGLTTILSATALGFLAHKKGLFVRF
As to the kind of experiment: Inhibition of rat membrane MAOB.

The target in data set [10] is T2, Amine oxidase [flavin-containing] B. Kind of data set: Inhibition of human recombinant MAOB expressed in Pichia pastoris at stoichiometric level of 1 mol/mol of E-FAD.
Data set [11] shares this target. As to the kind of experiment: Inhibition of human recombinant MAOB expressed in Pichia pastoris assessed as formation of intense negative dichroic band at […] by CD spectroscopy.

One may read the Ki as the dissociation constant of the complex between target and ligand, obtained from inhibition or displacement. `NCCCCc1ccccc1` [4-PHENYL-BUTYLAMINE] displayed a Ki in data set [1] of 31000 nM.

As a reminder, the IC50 is the concentration at which inhibition is half-maximal. Regarding `NC/C(=C/F)CCc1ccc(F)cc1` [MOFEGILINE], the Activity result in [2] is “Active”; in [3], “Not Active”; in [5], “Active”; in data set [6], “Active”; in data set [8] it was 50%; in data set [10], “Active”. In addition, in data set [11], the outcome was Active. In addition, the Ki worked out at 1100 nM in data set [4] and 28 nM in [7]. The half-maximal inhibitory concentration (IC50) in [9] came out at 3.6 nM.

For the origin of these results see ChEMBL document CHEMBL1151754, “Structural and mechanistic studies of mofegiline inhibition of recombinant human monoamine oxidase B” (J Med Chem, 2008).
